Test results from patent US8377974B2 (Millennium Pharmaceuticals, Inc., priority 2004, dated 2013).

Target: T1, human plasma protein factor Xa (Homo sapiens, UniProt P00742)
T1 construct: measure proteolytic activity of the enzyme (factor Xa); purchased Haematologic Technologies (Essex Junction, Vt.); host or cells: human plasma
Assay: Factor Xa IC50 determination: cleavage of paranitroanilide substrate S-2765 in 96-well plates
Format: biochemical
Details: fXa 1 nM, S-2765 100 μM, Tris buffered saline pH 7.4, room temperature
Outline: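 Human plasma factor Xa (1 nM) preincubated 5 min at room temperature with inhibitor (0.01 nM–10 μM final) in Tris-buffered saline pH 7.4 with 5 mM CaCl2, 0.1% BSA, 5% DMSO. S-2765 at 100 μM final; hydrolysis at 405 nm over 2 min. IC50 from 4-parameter fit of initial velocities.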

T1 sequence (P00742 235-488 limits assumed): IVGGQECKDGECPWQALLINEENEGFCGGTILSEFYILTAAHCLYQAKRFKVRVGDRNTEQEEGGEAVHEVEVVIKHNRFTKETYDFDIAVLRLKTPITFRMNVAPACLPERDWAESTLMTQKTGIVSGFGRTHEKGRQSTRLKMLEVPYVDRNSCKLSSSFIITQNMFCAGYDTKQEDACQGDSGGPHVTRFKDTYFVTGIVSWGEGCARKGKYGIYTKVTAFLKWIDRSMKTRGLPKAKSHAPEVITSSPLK
T1 sequence (P00742 41-179 partner limits assumed): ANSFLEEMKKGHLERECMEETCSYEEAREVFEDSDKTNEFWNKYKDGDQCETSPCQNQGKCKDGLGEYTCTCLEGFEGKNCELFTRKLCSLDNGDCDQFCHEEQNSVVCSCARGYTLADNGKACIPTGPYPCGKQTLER

Row | SMILES | IC50
1 | CC1(CNC(=O)c2ccc(Cl)s2)CC(c2ccc(C(=N)N3CCC3)cc2)=NO1 (stereo not drawn) [Example 62, 5-Chloro-thiophene-2-carboxylic acid {3-[4-(azetidin-1-yl-imino-methyl)-phenyl]-5-methyl-4,5-dihydro-isoxazol-5-ylmethyl}-amide] | ≤ 0.1 µM
2 | CN(C)Cc1cccc(-c2ccc(-c3cc(CNC(=O)c4ccc(Cl)s4)on3)cc2)c1 [Example 211, 5-Chloro-thiophene-2-carboxylic acid [3-(3′-dimethylaminomethyl-biphenyl-4-yl)-isoxazol-5-ylmethyl]-amide] | 0.1 to 0.5 µM
3 | O=C(NCc1cn(-c2ccc(N3CCCNCC3)nc2)nn1)c1ccc(Cl)s1 [Example 384, N-((1-(6-(1,4-Diazepan-1-yl)pyridin-3-yl)-1H-1,2,3-triazol-4-yl)methyl)-5-chlorothiophene-2-carboxamide] | ≤ 0.1 µM
4 | N=C(c1ccc(-c2cc(CNC(=O)c3ccc(Cl)s3)on2)cc1)N1CCCC1 [Example 23, 5-Chloro-thiophene-2-carboxylic acid {3-[4-(imino-pyrrolidin-1-yl-methyl)-phenyl]-isoxazol-5-ylmethyl}-amide] | ≤ 0.1 µM
5 | CCCN(C)C(=N)c1ccc(-n2cc(CNC(=O)c3ccc(Cl)s3)nn2)cc1 [Example 315, N-((1-(4-(N-Methyl-N-propylcarbamimidoyl)phenyl)-1H-1,2,3-triazol-4-yl)methyl)-5-chlorothiophene-2-carboxamide] | ≤ 0.1 µM
6 | CCOC(=O)C1CCN(C(=N)c2ccc(-c3nc(CNC(=O)c4ccc(Cl)s4)co3)cc2)CC1 [Example 342, Ethyl 1-((4-(4-((2-chlorothiophene-5-carboxamido)methyl)oxazol-2-yl)phenyl)(imino)methyl)piperidine-4-carboxylate] | 0.1 to 0.5 µM
7 | CN1CCCN(c2ccc(-n3cc(CNC(=O)c4ccc(Cl)s4)nn3)cn2)CC1 [Example 383, 5-Chloro-N-((1-(6-(4-methyl-1,4-diazepan-1-yl)pyridin-3-yl)-1H-1,2,3-triazol-4-yl)methyl)thiophene-2-carboxamide] | ≤ 0.1 µM
8 | COc1cc(C(=N)N2CCCCC2)ccc1-c1cc(CNC(=O)c2ccc(Cl)s2)on1 [Example 121, 5-Chloro-thiophene-2-carboxylic acid {3-[4-(imino-piperidin-1-yl-methyl)-2-methoxy-phenyl]-isoxazol-5-ylmethyl}-amide] | ≤ 0.1 µM
9 | CCN1CCC(C2=NOC(CNC(=O)c3ccc(Cl)s3)C2)CC1 (stereo not drawn) [Example 169, 5-Chloro-thiophene-2-carboxylic acid [3-(1-ethyl-piperidin-4-yl)-4,5-dihydro-isoxazol-5-ylmethyl]-amide] | ≥ 0.5 µM
10 | CN1CCN=C1c1ccc(-c2nc(CNC(=O)c3ccc(Cl)s3)co2)cc1 [Example 339, 5-Chloro-N-((2-(4-(1-methyl-4,5-dihydro-1H-imidazol-2-yl)phenyl)oxazol-4-yl)methyl)thiophene-2-carboxamide] | ≤ 0.1 µM
11 | COc1ccc(-c2ccc(C3=NOC(CNC(=O)c4ccc(Cl)s4)C3)cc2)c(CO)c1 (stereo not drawn) [Example 207, 5-Chloro-thiophene-2-carboxylic acid [3-(2′-hydroxymethyl-4′-methoxy-biphenyl-4-yl)-4,5-dihydro-isoxazol-5-ylmethyl]-amide] | ≥ 0.5 µM
12 | N=C(c1ccc(-n2cnc(CNC(=O)c3ccc(Cl)s3)c2)cc1)N1CCC1 [Example 366, N-((1-(4-(Azetidin-1-yl(imino)methyl)phenyl)-1H-imidazol-4-yl)methyl)-5-chlorothiophene-2-carboxamide] | ≤ 0.1 µM
13 | CCCN(C)C(=N)c1ccc(-c2cc(CN(C)C(=O)c3ccc(Cl)s3)on2)cc1 [Example 43, 5-Chloro-thiophene-2-carboxylic acid methyl-{3-[4-(N-methyl-N-propyl-carbamimidoyl)-phenyl]-isoxazol-5-ylmethyl}-amide] | ≥ 0.5 µM
14 | N=C(c1ccc(-n2cc(CNC(=O)c3ccc(Cl)s3)nn2)cc1)N1CCC1 [Example 317, N-((1-(4-(Azetidin-1-yl(imino)methyl)phenyl)-1H-1,2,3-triazol-4-yl)methyl)-5-chlorothiophene-2-carboxamide] | ≤ 0.1 µM
15 | CN(C)c1cc(C(=N)N2CCCC2)ccc1-c1cc(CNC(=O)c2ccc(Cl)s2)on1 [Example 96, 5-Chloro-thiophene-2-carboxylic acid {3-[2-dimethylamino-4-(imino-pyrrolidin-1-yl-methyl)-phenyl]-isoxazol-5-ylmethyl}-amide] | ≤ 0.1 µM
16 | CN(c1ccncc1)c1ccc(C2=NOC(CNC(=O)c3ccc(Cl)s3)C2)cc1 (stereo not drawn) [Example 227, 5-Chloro-thiophene-2-carboxylic acid {3-[4-(methyl-pyridin-4-yl-amino)-phenyl]-4,5-dihydro-isoxazol-5-ylmethyl}-amide] | ≤ 0.1 µM
17 | N=C(N)N1CCC(c2cc(CNC(=O)c3ccc(Cl)s3)on2)CC1 [Example 179, 5-Chloro-thiophene-2-carboxylic acid [3-(1-carbamimidoyl-piperidin-4-yl)-isoxazol-5-ylmethyl]-amide] | ≥ 0.5 µM

Row | SMILES | IC50
18 | O=C(NCc1cc(-c2ccc(-c3ccccn3)cc2)no1)c1ccc(Cl)s1 [Example 220, 5-Chloro-thiophene-2-carboxylic acid [3-(4-pyridin-2-yl-phenyl)-isoxazol-5-ylmethyl]-amide] | ≥ 0.5 µM
19 | CN(Cc1cc(-c2ccc(C(=N)N3CCCC3)cc2)no1)C(=O)c1ccc(Cl)s1 [Example 37, 5-Chloro-thiophene-2-carboxylic acid {3-[4-(imino-pyrrolidin-1-yl-methyl)-phenyl]-isoxazol-5-ylmethyl}-methyl-amide] | ≥ 0.5 µM
20 | C[C@@H](NC(=O)c1ccc(Cl)s1)c1cc(-c2ccc(C(=N)N3CCCC3)cc2)no1 [Example 51, (R)-5-Chloro-thiophene-2-carboxylic acid (1-{3-[4-(imino-pyrrolidin-1-yl-methyl)-phenyl]-isoxazol-5-yl}-ethyl)-amide] | ≤ 0.1 µM
21 | O=C(NCC1CC(c2ccc(N3CCOCCC3=O)cc2)=NO1)c1ccc(Cl)s1 (stereo not drawn) [Example 246, 5-Chloro-thiophene-2-carboxylic acid {3-[4-(5-oxo-[1,4]oxazepan-4-yl)-phenyl]-4,5-dihydro-isoxazol-5-ylmethyl}-amide] | ≤ 0.1 µM
22 | CN1CCN=C1c1ccc(C2=NOC(CNC(=O)c3ccc(Cl)s3)C2)c(N(C)C)c1 (stereo not drawn) [Example 75, 5-Chloro-thiophene-2-carboxylic acid {3-[2-dimethylamino-4-(1-methyl-4,5-dihydro-1H-imidazol-2-yl)-phenyl]-4,5-dihydro-isoxazol-5-ylmethyl}-amide] | 0.1 to 0.5 µM
23 | CN1CCN=C1c1ccc(-n2cc(CNC(=O)c3ccc(Cl)s3)cn2)cc1 [Example 326, 5-Chloro-N-((1-(4-(1-methyl-4,5-dihydro-1H-imidazol-2-yl)phenyl)-1H-pyrazol-4-yl)methyl)thiophene-2-carboxamide] | ≤ 0.1 µM
24 | CN1CCN(c2cc(-n3ccccc3=O)ccc2-n2cc(CNC(=O)c3ccc(Cl)s3)nn2)CC1 [Example 308, 5-Chloro-N-((1-(2-(4-methylpiperazin-1-yl)-4-(2-oxopyridin-1(2H)-yl)phenyl)-1H-1,2,3-triazol-4-yl)methyl)thiophene-2-carboxamide] | ≤ 0.1 µM
25 | O=Cc1ccccc1-c1ccc(-c2cc(CNC(=O)c3ccc(Cl)s3)on2)cc1 [Example 208, 5-Chloro-thiophene-2-carboxylic acid [3-(2′-formyl-biphenyl-4-yl)-isoxazol-5-ylmethyl]-amide] | ≤ 0.1 µM
26 | CN(C)Cc1ccc(-c2ccc(-c3cc(CNC(=O)c4ccc(Cl)s4)on3)cc2)cc1 [Example 213, 5-Chloro-thiophene-2-carboxylic acid [3-(4′-dimethylaminomethyl-biphenyl-4-yl)-isoxazol-5-ylmethyl]-amide] | ≥ 0.5 µM
27 | COc1cccn(-c2ccc(-n3cc(CNC(=O)c4ccc(Cl)s4)nn3)cc2)c1=O [Example 294, 5-Chloro-N-((1-(4-(3-methoxy-2-oxopyridin-1(2H)-yl)phenyl)-1H-1,2,3-triazol-4-yl)methyl)thiophene-2-carboxamide] | ≤ 0.1 µM
28 | O=C(NCc1cn(-c2ccc(N3CCCCC3)nc2)nn1)c1ccc(Cl)s1 [Example 392, 5-Chloro-N-((1-(6-(piperidin-1-yl)pyridin-3-yl)-1H-1,2,3-triazol-4-yl)methyl)thiophene-2-carboxamide] | 0.1 to 0.5 µM
29 | N=C(c1ccc(-c2cncc(CNC(=O)c3ccc(Cl)s3)c2)cc1)N1CCCCC1 [Example 373, 5-Chloro-N-((5-(4-(imino(piperidin-1-yl)methyl)phenyl)pyridin-3-yl)methyl)thiophene-2-carboxamide] | ≤ 0.1 µM
30 | CN1CCN=C1c1ccc(C2=NOC(CNC(=O)c3ccc(Cl)s3)C2)c(OC2CCCC2)c1 (stereo not drawn) [Example 113, 5-Chloro-thiophene-2-carboxylic acid {3-[2-cyclopentyloxy-4-(1-methyl-4,5-dihydro-1H-imidazol-2-yl)-phenyl]-4,5-dihydro-isoxazol-5-ylmethyl}-amide] | ≤ 0.1 µM
31 | CN(C)C(=N)c1ccc(C2=NOC(CNC(=O)c3ccc(Cl)s3)C2)c(N2CCCCCC2)c1 (stereo not drawn) [Example 90, 5-Chloro-thiophene-2-carboxylic acid {3-[2-azepan-1-yl-4-(N,N-dimethyl-carbamimidoyl)-phenyl]-4,5-dihydro-isoxazol-5-ylmethyl}-amide] | 0.1 to 0.5 µM
32 | O=C(NCC1CC(c2ccc(Nc3ccccn3)cc2)=NO1)c1ccc(Cl)s1 (stereo not drawn) [Example 224, 5-Chloro-thiophene-2-carboxylic acid {3-[4-(pyridin-2-ylamino)-phenyl]-4,5-dihydro-isoxazol-5-ylmethyl}-amide] | ≥ 0.5 µM
33 | CN(C)CCCN(C)c1ccc(C2=NOC(CNC(=O)c3ccc(Cl)s3)C2)cc1 (stereo not drawn) [Example 239, 5-Chloro-thiophene-2-carboxylic acid (3-{4-[(3-dimethylamino-propyl)-methyl-amino]-phenyl}-4,5-dihydro-isoxazol-5-ylmethyl)-amide] | ≤ 0.1 µM
